According to patent US20260116910A1, “POLYCYCLIC COMPOUNDS AND METHODS THEREOF” (HEPAITECH (BEIJING) BIOPHARMA TECHNOLOGY CO., LTD., priority 2021, published 2026):

How the values were obtained:
MRGPRX4 = MRGPRX4 (Homo sapiens, UniProt Q96LA9); experiment: MRGPRX4 activation, Fluo-8 Ca2+ FLIPR assay in HEK293T cells stably expressing MRGPRX4; type: cell-based; set-up: key to MRGPRX4 activation, Average / MRGPRX4 activation, Ave.: fluorescence change dF/F0; details: for EC50: MRGPRX4 activation, Ca2+ fluorescence, no activation in tested range reported as III, read-out: Activity (EC50 μM)
Chain of MRGPRX4 (Q96LA9 whole entry): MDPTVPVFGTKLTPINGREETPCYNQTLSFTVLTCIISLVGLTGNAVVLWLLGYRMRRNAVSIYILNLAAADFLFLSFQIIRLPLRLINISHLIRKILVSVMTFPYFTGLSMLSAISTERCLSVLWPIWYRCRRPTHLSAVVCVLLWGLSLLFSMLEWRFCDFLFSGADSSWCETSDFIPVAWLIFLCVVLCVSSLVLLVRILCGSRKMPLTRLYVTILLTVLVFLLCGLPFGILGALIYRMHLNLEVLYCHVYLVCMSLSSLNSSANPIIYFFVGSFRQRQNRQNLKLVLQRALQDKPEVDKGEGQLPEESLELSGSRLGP
Method in brief: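 Cells seeded overnight to >95% confluence, loaded 40-60 min at room temperature with 2 μM Fluo-8 AM, then kept in HHBS. Baseline read 30 s, compound added, signal followed 150 s more.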

human FXR (NR1H4) = molecular target: T1, human FXR (NR1H4) (Homo sapiens, UniProt Q96RI1); experiment: Human FXR (NR1H4) agonist assessment, FXRE-NanoLuc reporter in HEK293T cells; type: cell-based; details: FXR activation, HEK293T FXRE-NanoLuc reporter, 24 hr; for EC50: read-out: EC50
T1 sequence (Q96RI1 1-476 isoform Q96RI1-1): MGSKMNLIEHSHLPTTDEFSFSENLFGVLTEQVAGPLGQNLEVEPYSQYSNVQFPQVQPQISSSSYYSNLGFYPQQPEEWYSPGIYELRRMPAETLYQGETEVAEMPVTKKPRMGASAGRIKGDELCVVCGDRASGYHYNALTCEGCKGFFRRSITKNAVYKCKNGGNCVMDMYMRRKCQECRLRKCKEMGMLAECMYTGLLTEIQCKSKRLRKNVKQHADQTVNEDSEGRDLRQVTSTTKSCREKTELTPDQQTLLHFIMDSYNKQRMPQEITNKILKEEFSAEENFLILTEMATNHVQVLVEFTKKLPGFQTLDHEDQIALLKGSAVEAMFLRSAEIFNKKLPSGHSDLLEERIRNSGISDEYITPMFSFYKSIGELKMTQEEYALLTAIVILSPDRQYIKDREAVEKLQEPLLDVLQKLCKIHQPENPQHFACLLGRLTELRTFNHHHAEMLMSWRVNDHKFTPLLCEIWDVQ
Method in brief: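 HEK293T cells stably expressing human FXR with an FXRE-NanoLuc reporter were treated with compounds for 24 hr at 37 °C, with 0.01% DMSO as negative control. Medium was read for luminescence after 5 min with coelenterazine. EC50 was fitted by sigmoid to concentration-response data.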

SMILES | EC50 (MRGPRX4) [µM] | Efficacy (maximum measured induction of NanoLuc, normalized to CDCA set as 100%) (human FXR (NR1H4)) | EC50 (human FXR (NR1H4)) [µM] | MRGPRX4 activation, fluorescence change (dF/F0), Average (MRGPRX4; Conc. (Log[M]) −4) | MRGPRX4 activation, fluorescence change (dF/F0), Average (MRGPRX4; Conc. (Log[M]) −4.5) | MRGPRX4 activation, fluorescence change (dF/F0), Average (MRGPRX4; Conc. (Log[M]) −5) | MRGPRX4 activation, fluorescence change (dF/F0), Average (MRGPRX4; Conc. (Log[M]) −5.5) | MRGPRX4 activation, fluorescence change (dF/F0), Average (MRGPRX4; Conc. (Log[M]) −6) | MRGPRX4 activation, fluorescence change (dF/F0), Average (MRGPRX4; Conc. (Log[M]) −7) | MRGPRX4 activation, fluorescence change (dF/F0), Average (MRGPRX4; Conc. (Log[M]) −8) | MRGPRX4 activation, fluorescence change (dF/F0), Average (MRGPRX4; Conc. (Log[M]) −9) | further results
CC[C@H]1[C@@H](O)[C@@H]2[C@H](CC[C@]3(C)[C@@H]([C@H](C)CNC(=O)NS(=O)(=O)c4ccc(C(C)(C)CF)cc4)CC[C@@H]23)[C@@]2(C)CCCC[C@@H]12 [20-1] | > 100 | A (efficacy >400%) | < 1 | – | – | – | – | – | – | – | – | MRGPRX4 activation, Average (MRGPRX4; E3-9, Conc. (Log[M]) −4.0): 0.018; MRGPRX4 activation, Average (MRGPRX4; E3-9, Conc. (Log[M]) −4.5): 0.016; MRGPRX4 activation, Average (MRGPRX4; E3-9, Conc. (Log[M]) −5.0): 0.019; MRGPRX4 activation, Average (MRGPRX4; E3-9, Conc. (Log[M]) −5.4): 0.019; MRGPRX4 activation, Average (MRGPRX4; E3-9, Conc. (Log[M]) −5.9): 0.021
CC[C@H]1[C@@H](O)[C@@H]2[C@H](CC[C@]3(C)[C@@H]([C@H](C)CNC(=O)NS(=O)(=O)c4ccc5c(c4)CCC(C)(C)O5)CC[C@@H]23)[C@@]2(C)CCCC[C@@H]12 [20-2] | > 100 | B (300%<efficacy <=400%) | 1 to 10 | – | – | – | – | – | – | – | – | MRGPRX4 activation, Average (MRGPRX4; E3-9, Conc. (Log[M]) −4.0): 0.025; MRGPRX4 activation, Average (MRGPRX4; E3-9, Conc. (Log[M]) −4.5): 0.012; MRGPRX4 activation, Average (MRGPRX4; E3-9, Conc. (Log[M]) −5.0): 0.021; MRGPRX4 activation, Average (MRGPRX4; E3-9, Conc. (Log[M]) −5.4): 0.019; MRGPRX4 activation, Average (MRGPRX4; E3-9, Conc. (Log[M]) −5.9): 0.025
CC[C@H]1[C@@H](O)[C@@H]2[C@H](CC[C@]3(C)[C@@H]([C@H](C)CNC(=O)NS(=O)(=O)c4ccc(N5CCCCC5)nc4)CC[C@@H]23)[C@@]2(C)CCCC[C@@H]12 [20-3] | > 100 | B (300%<efficacy <=400%) | 1 to 10 | – | – | – | – | – | – | – | – | Activation (%) (MRGPRX4; second E3-8-1, 4.6 nM, n = 1): 3.48%; Activation (%) (MRGPRX4; second E3-8-1, 4.6 nM, n = 2): 2.86%; Activation (%) (MRGPRX4; second E3-8-1, 14 nM, n = 1): 3.48%; Activation (%) (MRGPRX4; second E3-8-1, 14 nM, n = 2): 3.79%; Activation (%) (MRGPRX4; second E3-8-1, 41 nM, n = 1): 3.48%; Activation (%) (MRGPRX4; second E3-8-1, 41 nM, n = 2): 3.48%; Activation (%) (MRGPRX4; second E3-8-1, 123 nM, n = 1): 3.17%; Activation (%) (MRGPRX4; second E3-8-1, 123 nM, n = 2): 3.79%; Activation (%) (MRGPRX4; second E3-8-1, 370 nM, n = 1): 3.17%; Activation (%) (MRGPRX4; second E3-8-1, 370 nM, n = 2): 3.17%; Activation (%) (MRGPRX4; second E3-8-1, 1111 nM, n = 1): 3.79%; Activation (%) (MRGPRX4; second E3-8-1, 1111 nM, n = 2): 3.48%; Activation (%) (MRGPRX4; second E3-8-1, 3333 nM, n = 1): 2.55%; Activation (%) (MRGPRX4; second E3-8-1, 3333 nM, n = 2): 3.17%; Activation (%) (MRGPRX4; second E3-8-1, 10000 nM, n = 1): 2.55%; Activation (%) (MRGPRX4; second E3-8-1, 10000 nM, n = 2): 3.17%; Activation (%) (MRGPRX4; second E3-8-1, 30000 nM, n = 1): 1.63%; Activation (%) (MRGPRX4; second E3-8-1, 30000 nM, n = 2): 2.24%
C[C@H](CC(=O)O)[C@H]1CC[C@H]2[C@@H]3CC[C@@H]4C[C@H](O)CC[C@]4(C)[C@H]3C[C@H](O)[C@]12C [RC-1] | < 50 | B (300%<efficacy <=400%) | 1 to 10 | 0.329 | 0.080 | −0.029 | −0.019 | −0.015 | −0.010 | −0.003 | −0.005 | –
C[C@H](CCCC(=O)O)[C@H]1CC[C@H]2[C@@H]3CC[C@@H]4C[C@H](O)CC[C@]4(C)[C@H]3C[C@H](O)[C@]12C [RC-2] | < 50 | B (300%<efficacy <=400%) | 1 to 10 | 0.242 | 0.159 | 0.126 | 0.034 | 0.017 | −0.012 | −0.010 | −0.018 | –
C[C@]12CC[C@@H](O)C[C@H]1CC[C@@H]1[C@@H]2C[C@H](O)[C@]2(C)[C@@H](CCCCCC(=O)O)CC[C@@H]12 [RC-3] | < 50 | B (300%<efficacy <=400%) | 1 to 10 | 0.225 | 0.233 | 0.182 | 0.026 | −0.007 | −0.027 | −0.008 | −0.013 | –
C[C@H](CCC(=O)O)[C@H]1CC[C@H]2[C@@H]3CC[C@@H]4C[C@@H](O)CC[C@]4(C)[C@H]3C[C@H](O)[C@]12C [RC-5] | – | B (300%<efficacy <=400%) | 1 to 10 | 0.300 | 0.228 | 0.166 | 0.030 | −0.009 | −0.017 | −0.021 | −0.007 | –
C[C@H](CCC(=O)O)[C@H]1CC[C@H]2[C@@H]3CC[C@@H]4C[C@@H](O)CC[C@]4(C)[C@H]3C[C@@H](O)[C@]12C [RC-6] | – | B (300%<efficacy <=400%) | 1 to 10 | 0.259 | 0.208 | 0.145 | 0.009 | −0.013 | −0.007 | −0.015 | −0.008 | –
C[C@H](CC/C=C/C(=O)O)[C@H]1CC[C@H]2[C@@H]3CC[C@@H]4C[C@H](O)CC[C@]4(C)[C@H]3C[C@H](O)[C@]12C [RC-7] | < 50 | C (100%<efficacy <=300%) | 1 to 10 | 0.049 | 0.030 | −0.027 | −0.038 | −0.035 | 0.007 | −0.030 | −0.005 | –
